Assay results: ChEMBL document CHEMBL1201862, “PubChem BioAssay data set” (2004)
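Five concentrations, 48 hours, 96-well plates. GI50: concentration for 50% inhibition of growth.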 Active and inactive are the calls of the source. Rule as the data show it: active = GI50 up to about 1.1 µM and inactive = higher.

Key:
Assay in all cases: growth of human tumour cells (NCI), 48 h
ACHN = test system: ACHN
NCI-H23 = test system: NCI-H23
HCT-15 = test system: HCT-15
NCI-H460 = test system: NCI-H460
UO-31 = test system: UO-31
UACC-257 = test system: UACC-257
SK-MEL-28 = test system: SK-MEL-28
EKVX = test system: EKVX
HCC 2998 = test system: HCC 2998
SK-MEL-5 = test system: SK-MEL-5
M14 = test system: M14
786-0 = test system: 786-0
SF-268 = test system: SF-268
HL-60 = test system: HL-60
SR = test system: SR

SMILES | GI50 (ACHN) | GI50 (NCI-H23) | GI50 (HCT-15) | GI50 (NCI-H460) | GI50 (UO-31) | GI50 (UACC-257) | GI50 (SK-MEL-28) | GI50 (EKVX) | GI50 (HCC 2998) | GI50 (SK-MEL-5) | GI50 (M14) | GI50 (786-0) | GI50 (SF-268) | GI50 (HL-60) | GI50 (SR)
Cc1ccc(-c2cc(=O)c3cc(C)c(C)c(C(=O)O)c3o2)cc1 | > 100 µM (inactive) | > 100 µM (inactive) | > 100 µM | > 100 µM (inactive) | > 100 µM (inactive) | > 100 µM (inactive) | > 100 µM (inactive) | > 100 µM (inactive) | > 100 µM (inactive) | > 100 µM (inactive) | > 100 µM (inactive) | > 100 µM (inactive) | > 100 µM (inactive) |  | 
Cc1cc(=O)n(-c2ccccc2C)c(C)n1 | > 100 µM (inactive) | > 100 µM (inactive) | > 100 µM | > 100 µM (inactive) | > 100 µM (inactive) | > 100 µM (inactive) | > 100 µM (inactive) | > 100 µM (inactive) | > 100 µM (inactive) | > 100 µM (inactive) | > 100 µM (inactive) | > 100 µM (inactive) | > 100 µM (inactive) | > 100 µM (inactive) | 
Cc1ccc(/C=C2\CCCC(C(NO)c3ccc(C)cc3)C2=NO)cc1 (stereo unspecified) | > 100 µM (inactive) | 24 µM (inactive) | 36.3 µM | 24.7 µM (inactive) | 57.4 µM (inactive) | 29.6 µM (inactive) | 16.1 µM (inactive) | 44.4 µM (inactive) | 16.8 µM (inactive) | 21.2 µM (inactive) | 26.4 µM (inactive) | 58.3 µM (inactive) | 17.6 µM (inactive) | 19.5 µM (inactive) | 
N=C1OC(c2ccc3c(c2)OCO3)C(NNS(=O)(=O)c2ccccc2)=C1O (stereo unspecified) | > 100 µM (inactive) | 52.5 µM (inactive) | > 100 µM | > 100 µM (inactive) | > 100 µM (inactive) | > 100 µM (inactive) | > 100 µM (inactive) | > 100 µM (inactive) | > 100 µM (inactive) | 38.1 µM (inactive) | 46.6 µM (inactive) | > 100 µM (inactive) | > 100 µM (inactive) | > 100 µM (inactive) | 61.2 µM (inactive)
CCc1ccccc1NC(=O)C1=C(C)NC(C)=C(C(=O)Nc2c(CC)cccc2CC)C1c1ccc2c(c1)OCO2 (stereo unspecified) | 20.5 µM (inactive) | 16.7 µM (inactive) |  | 16.6 µM (inactive) | 16.2 µM (inactive) | 17.7 µM (inactive) | 18.1 µM (inactive) | 24.2 µM (inactive) | 16.5 µM (inactive) | 14.6 µM (inactive) | 16.4 µM (inactive) | 18.3 µM (inactive) | 20.3 µM (inactive) | 23 µM (inactive) | 
CCCCN(CCCC)C(=O)C(=O)C(C)C(=O)CC (stereo unspecified) | > 100 µM (inactive) | > 100 µM (inactive) | > 100 µM | > 100 µM (inactive) | > 100 µM (inactive) | > 100 µM (inactive) | > 100 µM (inactive) |  | > 100 µM (inactive) |  | > 100 µM (inactive) | > 100 µM (inactive) | > 100 µM (inactive) | > 100 µM (inactive) | 
O=C(c1ccccc1)c1c(CNCc2ccccc2)n(C(=O)c2ccccc2)c2ccccc12 | 14.5 µM (inactive) | 17.1 µM (inactive) | 28.8 µM | 14.5 µM (inactive) | 8.95 µM (inactive) | 29.6 µM (inactive) | > 100 µM (inactive) |  | 86.9 µM (inactive) | 29.9 µM (inactive) | 34.4 µM (inactive) | > 100 µM (inactive) | 43.4 µM (inactive) | 23.3 µM (inactive) | 6.58 µM (inactive)
Cc1ccccc1C1OC(=O)c2ccccc21 (stereo unspecified) | > 100 µM (inactive) | > 100 µM (inactive) | > 100 µM | > 100 µM (inactive) | > 100 µM (inactive) |  | > 100 µM (inactive) | > 100 µM (inactive) | > 100 µM (inactive) | > 100 µM (inactive) | > 100 µM (inactive) | > 100 µM (inactive) | > 100 µM (inactive) | > 100 µM (inactive) | > 100 µM (inactive)
CCN1C[C@]2(C)CC[C@H](OC)C34C1C([C@H](OC(C)=O)[C@@H]32)[C@@]1(OC)C[C@H](OC)[C@H]2C[C@@H]4[C@@H]1[C@H]2O | > 100 µM (inactive) | > 100 µM (inactive) | 87.5 µM | > 100 µM (inactive) | > 100 µM (inactive) | > 100 µM (inactive) | > 100 µM (inactive) | > 100 µM (inactive) | > 100 µM (inactive) | > 100 µM (inactive) | > 100 µM (inactive) | > 100 µM (inactive) | > 100 µM (inactive) | > 100 µM (inactive) | 
CSc1nnc(C(C#N)C#N)nn1 |  | > 100 µM (inactive) | > 100 µM | > 100 µM (inactive) | > 100 µM (inactive) | > 100 µM (inactive) |  | > 100 µM (inactive) | > 100 µM (inactive) | > 100 µM (inactive) | > 100 µM (inactive) | > 100 µM (inactive) | > 100 µM (inactive) | > 100 µM (inactive) | > 100 µM (inactive)
